# In EP2970215B1, “PYRROLIDINE DERIVATIVES, PHARMACEUTICAL COMPOSITIONS CONTAINING THEM, AND THEIR USE IN THERAPY” (AbbVie Deutschland GmbH & Co. KG, priority 2013, dated 2014):
# Molecular target: T1, human GlyT1c transporter (Homo sapiens, UniProt P48067)
# T1 construct: expressed in transfected cells; host or cells: CHO cells (recombinant; line hGlyT1c_5_CHO is named for the uptake assay)
# T1 sequence (P48067 1-706): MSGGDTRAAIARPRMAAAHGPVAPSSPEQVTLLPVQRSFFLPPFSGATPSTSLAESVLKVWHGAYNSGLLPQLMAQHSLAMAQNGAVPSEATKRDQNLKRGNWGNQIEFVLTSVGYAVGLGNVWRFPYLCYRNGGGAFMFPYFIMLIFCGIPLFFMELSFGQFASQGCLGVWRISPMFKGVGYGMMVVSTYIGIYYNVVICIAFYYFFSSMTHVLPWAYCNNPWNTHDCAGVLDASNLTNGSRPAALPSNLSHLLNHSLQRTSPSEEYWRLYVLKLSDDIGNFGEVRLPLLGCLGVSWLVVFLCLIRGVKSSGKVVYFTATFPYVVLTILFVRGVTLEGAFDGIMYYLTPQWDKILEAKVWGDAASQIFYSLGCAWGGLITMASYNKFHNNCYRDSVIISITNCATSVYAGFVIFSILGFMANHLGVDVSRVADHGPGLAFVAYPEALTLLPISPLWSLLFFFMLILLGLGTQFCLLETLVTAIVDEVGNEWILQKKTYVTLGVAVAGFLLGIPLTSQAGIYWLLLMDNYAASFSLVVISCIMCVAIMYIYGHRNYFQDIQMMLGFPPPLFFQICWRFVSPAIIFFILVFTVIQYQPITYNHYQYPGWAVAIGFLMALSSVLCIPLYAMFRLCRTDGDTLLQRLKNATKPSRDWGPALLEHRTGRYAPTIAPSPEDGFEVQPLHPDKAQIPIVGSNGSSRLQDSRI
# Test: Radioligand binding assay using recombinant CHO cell membranes expressing human GlyT1
# Conditions: radioligand binding to human GlyT1c transporter-expressing membranes
# From the text: 2. Radioligand binding assays using recombinant CHO cell membranes expressing human GlyT1: […]
row,Ki [nM],SMILES
1,≤ 10000,"Cn1ccc(S(=O)(=O)N2C[C@@H](NC(=O)c3cccc(C(F)(F)F)c3Cl)[C@H](c3ccccc3)C2)n1 (relative stereo) [Example 49, 2-chloro-N-{trans-1-[(1-methyl-1H-pyrazol-3-yl)sulfonyl]-4-phenylpyrrolidin-3-yl}-3-(trifluoromethyl)benzamide]"
2,≤ 10000,"COc1ccc(N[C@@H]2CN(S(=O)(=O)c3cn(C)cn3)C[C@H]2c2ccccc2)cc1 (relative stereo) [Example 50, trans-N-(4-methoxyphenyl)-1-[(1-methyl-1H-imidazol-4-yl)sulfonyl]-4-phenylpyrrolidin-3-amine]"
3,≤ 10000,"Cn1cnc(S(=O)(=O)N2C[C@@H](Nc3ccc(C#N)cc3)[C@H](c3ccccc3)C2)c1 (relative stereo) [Example 52, 4-({trans-1-[(1-methyl-1H-imidazol-4-yl)sulfonyl]-4-phenylpyrrolidin-3-yl}amino)benzonitrile]"
4,≤ 10000,"Cn1cnc(S(=O)(=O)N2C[C@@H](Nc3ccc(C#N)cc3F)[C@H](c3ccccc3)C2)c1 (relative stereo) [Example 53, 3-fluoro-4-({trans-1-[(1-methyl-1H-imidazol-4-yl)sulfonyl]-4-phenylpyrrolidin-3-yl}amino)benzonitrile]"
5,≤ 1000,"Cn1cnc(S(=O)(=O)N2C[C@@H](NC(=O)c3cccc(C(F)(F)F)c3Cl)[C@H](c3ccccc3F)C2)c1 (relative stereo) [Example 54, 2-chloro-N-{trans-4-(2-fluorophenyl)-1-[(1-methyl-1H-imidazol-4-yl)sulfonyl]pyrrolidin-3-yl}-3-(trifluoromethyl)benzamide]"
6,≤ 100,"Cn1cnc(S(=O)(=O)N2C[C@@H](NC(=O)c3ccc(C(F)(F)F)cc3Cl)[C@H](c3ccccc3)C2)c1 (relative stereo) [Example 60, 2-chloro-N-{trans-1-[(1-methyl-1H-imidazol-4-yl)sulfonyl]-4-phenylpyrrolidin-3-yl}-4-(trifluoromethyl)benzamide]"
7,≤ 1000,"Cn1cnc(S(=O)(=O)N2C[C@@H](NC(=O)c3ccc(C(F)(F)F)c(Cl)c3)[C@H](c3ccccc3)C2)c1 (relative stereo) [Example 61, 3-chloro-N-{trans-1-[(1-methyl-1H-imidazol-4-yl)sulfonyl]-4-phenylpyrrolidin-3-yl}-4-(trifluoromethyl)benzamide]"
8,≤ 100,"Cn1cnc(S(=O)(=O)N2C[C@@H](NC(=O)c3ccc(C(F)(F)F)cc3Cl)[C@H](c3ccc(F)cc3)C2)c1 (relative stereo) [Example 62, 2-chloro-N-{trans-4-(4-fluorophenyl)-1-[(1-methyl-1H-imidazol-4-yl)sulfonyl]pyrrolidin-3-yl}-4-(trifluoromethyl)benzamide]"
9,≤ 100,"Cn1cnc(S(=O)(=O)N2C[C@@H](NC(=O)c3ccc(C(F)(F)F)c(Cl)c3)[C@H](c3ccc(F)cc3)C2)c1 (relative stereo) [Example 63, 3-chloro-N-{trans-4-(4-fluorophenyl)-1-[(1-methyl-1H-imidazol-4-yl)sulfonyl]pyrrolidin-3-yl}-4-(trifluoromethyl)benzamide]"
10,≤ 100,"Cn1cnc(S(=O)(=O)N2C[C@@H](NC(=O)c3ccc(C(F)(F)F)cc3)[C@H](c3ccc(F)cc3)C2)c1 (relative stereo) [Example 64, N-{trans-4-(4-fluorophenyl)-1-[(1-methyl-1H-imidazol-4-yl)sulfonyl]pyrrolidin-3-yl}-4-(trifluoromethyl)benzamide]"
11,≤ 1000,"Cn1cnc(S(=O)(=O)N2C[C@@H](NC(=O)c3cc(Cl)cc(Cl)c3)[C@H](c3ccc(F)cc3)C2)c1 (relative stereo) [Example 65, 3,5-dichloro-N-{trans-4-(4-fluorophenyl)-1-[(1-methyl-1H-imidazol-4-yl)sulfonyl]pyrrolidin-3-yl}benzamide]"
12,≤ 10000,"Cn1cnc(S(=O)(=O)N2C[C@@H](Nc3ccccc3C(F)(F)F)[C@H](c3ccccc3)C2)c1 (relative stereo) [Example 66, trans-1-[(1-methyl-1H-imidazol-4-yl)sulfonyl]-4-phenyl-N-[2-(trifluoromethyl)phenyl]pyrrolidin-3-amine]"
13,≤ 10,"Cn1cnc(S(=O)(=O)N2C[C@@H](Nc3cccc(C(F)(F)F)c3)[C@H](c3ccccc3)C2)c1 (relative stereo) [Example 67, trans-1-[(1-methyl-1H-imidazol-4-yl)sulfonyl]-4-phenyl-N-[3-(trifluoromethyl)phenyl]pyrrolidin-3-amine]"
14,≤ 1000,"Cn1cnc(S(=O)(=O)N2C[C@@H](Nc3ccc(C(F)(F)F)cc3)[C@H](c3ccccc3)C2)c1 (relative stereo) [Example 68, trans-1-[(1-methyl-1H-imidazol-4-yl)sulfonyl]-4-phenyl-N-[4-(trifluoromethyl)phenyl]pyrrolidin-3-amine]"
15,≤ 10000,"Cn1cnc(S(=O)(=O)N2C[C@@H](Nc3ccccc3F)[C@H](c3ccccc3)C2)c1 (relative stereo) [Example 69, trans-N-(2-fluorophenyl)-1-[(1-methyl-1H-imidazol-4-yl)sulfonyl]-4-phenylpyrrolidin-3-amine]"
16,≤ 1000,"Cn1cnc(S(=O)(=O)N2C[C@@H](Nc3cccc(F)c3)[C@H](c3ccccc3)C2)c1 (relative stereo) [Example 70, trans-N-(3-fluorophenyl)-1-[(1-methyl-1H-imidazol-4-yl)sulfonyl]-4-phenylpyrrolidin-3-amine]"
17,≤ 10000,"Cn1cnc(S(=O)(=O)N2C[C@@H](Nc3ccccc3Cl)[C@H](c3ccccc3)C2)c1 (relative stereo) [Example 73, trans-N-(2-chlorophenyl)-1-[(1-methyl-1H-imidazol-4-yl)sulfonyl]-4-phenylpyrrolidin-3-amine]"
18,≤ 100,"Cn1cnc(S(=O)(=O)N2C[C@@H](Nc3cccc(Cl)c3)[C@H](c3ccccc3)C2)c1 (relative stereo) [Example 74, trans-N-(3-chlorophenyl)-1-[(1-methyl-1H-imidazol-4-yl)sulfonyl]-4-phenylpyrrolidin-3-amine]"

row,SMILES,Ki [nM]
1,"Cn1cnc(S(=O)(=O)N2C[C@@H](NC(=O)c3cccc(C(F)(F)F)c3Cl)[C@H](c3cccc(F)c3)C2)c1 (relative stereo) [Example 55, 2-chloro-N-{trans-4-(3-fluorophenyl)-1-[(1-methyl-1H-imidazol-4-yl)sulfonyl]pyrrolidin-3-yl}-3-(trifluoromethyl)benzamide]",≤ 1000
2,"Cn1cnc(S(=O)(=O)N2C[C@@H](NC(=O)c3cccc(C(F)(F)F)c3Cl)[C@H](c3cccc(Cl)c3)C2)c1 (relative stereo) [Example 56, 2-chloro-N-{trans-4-(3-chlorophenyl)-1-[(1-methyl-1H-imidazol-4-yl)sulfonyl]pyrrolidin-3-yl}-3-(trifluoromethyl)benzamide]",≤ 1000
3,"Cc1cccc(N[C@@H]2CN(S(=O)(=O)c3cn(C)cn3)C[C@H]2c2ccccc2)c1 (relative stereo) [Example 58, trans-1-[(1-methyl-1H-imidazol-4-yl)sulfonyl]-N-(3-methylphenyl)-4-phenylpyrrolidin-3-amine]",≤ 100
4,"Cn1cnc(S(=O)(=O)N2C[C@@H](Nc3ccc(F)cc3)[C@H](c3ccccc3)C2)c1 (relative stereo) [Example 71, trans-N-(4-fluorophenyl)-1-[(1-methyl-1H-imidazol-4-yl)sulfonyl]-4-phenylpyrrolidin-3-amine]",≤ 1000
